Values joined by “and” are separate entries in the source; they are usually repeats but may differ in a detail not shown here. Equal values may be shown once. Results filed as inconclusive are left out.
Test system: nude mice, LX-1 lung xenograft intrarenal, tumor weight T/C
Assay: NCI In Vivo Anticancer Drug Screen. Data for tumor model Human Lung LX-1 Xenograft (intrarenal inoculation) in NU/NU Swiss (nude) mice
Details: endpoint: mean tumor weight change, higher = larger tumour
Protocol: The antitumor activity of compounds was measured in mice bearing transplantable tumors. Survival or tumor size were measured and the results are expressed as the measurement made in the treated group (T) divided by the measurement made in the vehicle treated control group (C). The tumor model used in this assay is Human Lung LX-1 Xenograft (intrarenal inoculation) in NU/NU Swiss (nude) mice

[1] = dose: 300.0 mg/kg/injection, schedule: Q04DX003 (sc), vehicle: saline with Tween-80
[2] = dose: 600.0 mg/kg/injection, schedule: Q04DX003 (sc), vehicle: saline with Tween-80
[3] = dose: 1200.0 mg/kg/injection, schedule: Q04DX003 (sc), vehicle: saline with Tween-80
[4] = dose: 2400.0 mg/kg/injection, schedule: Q04DX003 (sc), vehicle: saline with Tween-80
[5] = dose: 150.0 mg/kg/injection, schedule: Q04DX003 (sc), vehicle: saline with Tween-80
[6] = dose: 600.0 mg/kg/injection, schedule: Q04DX003 (sc), vehicle: water
[7] = dose: 37.5 mg/kg/injection, schedule: Q04DX003 (sc), vehicle: saline with Tween-80
[8] = dose: 75.0 mg/kg/injection, schedule: Q04DX003 (sc), vehicle: saline with Tween-80
[9] = dose: 300.0 mg/kg/injection, schedule: Q04DX003 (sc), vehicle: water
[10] = dose: 200.0 mg/kg/injection, schedule: Q04DX003 (sc), vehicle: saline with Tween-80
[11] = dose: 50.0 mg/kg/injection, schedule: Q01DX010 (sc), vehicle: saline with Tween-80
[12] = dose: 100.0 mg/kg/injection, schedule: Q01DX010 (sc), vehicle: saline with Tween-80
[13] = dose: 100.0 mg/kg/injection, schedule: Q04DX003 (sc), vehicle: saline with Tween-80
[14] = dose: 50.0 mg/kg/injection, schedule: Q01DX010 (sc), vehicle: water
[15] = dose: 100.0 mg/kg/injection, schedule: Q01DX010 (sc), vehicle: water
[16] = dose: 50.0 mg/kg/injection, schedule: Q04DX003 (sc), vehicle: saline with Tween-80
[17] = dose: 37.5 mg/kg/injection, schedule: Q04DX003 (sc), vehicle: water
[18] = dose: 75.0 mg/kg/injection, schedule: Q04DX003 (sc), vehicle: water

OCCN1CCN(CCCN2c3ccccc3Sc3ccc(C(F)(F)F)cc32)CC1
T/C (dose: 20.0 mg/kg/injection, schedule: Q01DX010 (sc), vehicle: saline): 69 % of control | T/C (dose: 40.0 mg/kg/injection, schedule: Q01DX010 (sc), vehicle: saline): 75 % of control

COc1cccc(C2NC(=O)c3c(n[nH]c3N)S2)c1O (centres undefined)
T/C [1]: 171 % of control | T/C [2]: 77 % of control | T/C [3]: 95 % of control | T/C [4]: 162 % of control

C[C@@H]1C[C@H]2[C@@H]3CCC4=CC(=O)C=C[C@]4(C)[C@@]3(F)[C@@H](O)C[C@]2(C)[C@@]1(O)C(=O)CO
T/C (dose: 1.56 mg/kg/injection, schedule: Q01DX010 (sc), vehicle: Klucel (hydroxypropylcellulose) (HPC)): 41 % of control | T/C (dose: 3.13 mg/kg/injection, schedule: Q01DX010 (sc), vehicle: Klucel (hydroxypropylcellulose) (HPC)): 32 % of control | T/C (dose: 6.25 mg/kg/injection, schedule: Q01DX010 (sc), vehicle: Klucel (hydroxypropylcellulose) (HPC)): 33 % of control | T/C (dose: 12.5 mg/kg/injection, schedule: Q01DX010 (sc), vehicle: Klucel (hydroxypropylcellulose) (HPC)): 26 % of control

Nc1nc(N)c2cc(S(=O)(=O)c3ccccc3)ccc2n1
T/C [5]: 116 % of control | T/C [1]: 77 % of control | T/C [2]: 87 % of control | T/C [3]: 95 % of control

Cc1noc(N)c1N
T/C [6]: 106 % of control | T/C (dose: 1200.0 mg/kg/injection, schedule: Q04DX003 (sc), vehicle: water): 94 % of control

c1ccc2c(c1)-c1ccccc1C1NC21 (centres undefined)
T/C [7]: 82 % of control | T/C [8]: 56 % of control | T/C [5]: 45 % of control

CCCCNC(C)C1(O)Cc2c(O)c3c(c(O)c2C(OC2CC(N)C(O)C(C)O2)C1)C(=O)c1c(OC)cccc1C3=O (centres undefined)
T/C [9]: 99 % of control | T/C [6]: 84 % of control

CCCCCCCCCCCCCCCC(=O)OCC1OC(n2ccc(N)nc2=O)C(O)C1O (centres undefined)
T/C (dose: 18.75 mg/kg/injection, schedule: Q04DX003 (sc), vehicle: saline with Tween-80): 55 % of control | T/C [7]: 43 % of control and 60 % of control | T/C [10]: 70 % of control

O=c1s[se]c2ccccc12
T/C (dose: 75.0 mg/kg/injection, schedule: Q04DX003 (sc), vehicle: Klucel (hydroxypropylcellulose) (HPC)): 66 % of control | T/C (dose: 150.0 mg/kg/injection, schedule: Q04DX003 (sc), vehicle: Klucel (hydroxypropylcellulose) (HPC)): 59 % of control

CC1(c2ccc(Cl)cc2)OC(=O)C(=Cc2ccc([N+](=O)[O-])s2)C(=O)O1 (centres undefined)
T/C [10]: 111 % of control | T/C (dose: 800.0 mg/kg/injection, schedule: Q04DX003 (sc), vehicle: saline with Tween-80): 80 % of control | T/C (dose: 1600.0 mg/kg/injection, schedule: Q04DX003 (sc), vehicle: saline with Tween-80): 118 % of control

C[C@@H](CN1CC(=O)NC(=O)C1)N1CC(=O)NC(=O)C1
T/C [11]: 91 % of control | T/C [12]: 34 % of control

COc1cc2c3c(cccc3c1)C(=O)N(CCN(C)C)C2=O
T/C [8]: 98 % of control | T/C [5]: 115 % of control | T/C [1]: 53 % of control | T/C [2]: 79 % of control

CCOC(=O)c1[nH]c2cccc3c2c1CC(Br)C3=O (centres undefined)
T/C [1]: 87 % of control | T/C [2]: 88 % of control | T/C [3]: 84 % of control | T/C [4]: 67 % of control

NCCc1cc(O)c(O)c(O)c1
T/C (dose: 100.0 mg/kg/injection, schedule: Q04DX003 (sc), vehicle: saline): 83 % of control | T/C (dose: 200.0 mg/kg/injection, schedule: Q04DX003 (sc), vehicle: saline): 96 % of control | T/C (dose: 800.0 mg/kg/injection, schedule: Q04DX003 (sc), vehicle: saline): 91 % of control

Nc1nc(/C=C(/O)c2ccccc2)c2ncn(C3OC(CO)C(O)C3O)c2n1 (centres undefined)
T/C (dose: 100.0 mg/kg/injection, schedule: Q04DX003 (sc), vehicle: distilled water + Tween-80): 111 % of control | T/C (dose: 200.0 mg/kg/injection, schedule: Q04DX003 (sc), vehicle: distilled water + Tween-80): 100 % of control | T/C (dose: 400.0 mg/kg/injection, schedule: Q04DX003 (sc), vehicle: distilled water + Tween-80): 99 % of control

O=C(O[Si](Cc1ccccc1)(Cc1ccccc1)Cc1ccccc1)N(CCCl)CCCl
T/C [13]: 53 % of control | T/C [10]: 120 % of control

OC(C1CO1)C(O)C1CO1 (centres undefined)
T/C (dose: 1.0 mg/kg/injection, schedule: Q01DX010 (sc), vehicle: saline): 73 % of control | T/C (dose: 2.0 mg/kg/injection, schedule: Q01DX010 (sc), vehicle: saline): 66 % of control

C[C@]12CC[C@H]3[C@@H](CCC4=C[C@@H](OC5OCC(OC6OC(CO)C(O)C(O)C6O)C(O)C5O)CC[C@@]43C=O)[C@@]1(O)CCC2C1=CC(=O)OC1 (some centres undefined)
T/C (dose: 7.5 mg/kg/injection, schedule: Q04DX003 (sc), vehicle: Klucel (hydroxypropylcellulose) (HPC)): 77 % of control | T/C (dose: 30.0 mg/kg/injection, schedule: Q04DX003 (sc), vehicle: Klucel (hydroxypropylcellulose) (HPC)): 79 % of control | T/C (dose: 60.0 mg/kg/injection, schedule: Q04DX003 (sc), vehicle: Klucel (hydroxypropylcellulose) (HPC)): 79 % of control

NC(=S)N/N=C\c1ncccc1OCc1cccc(N)c1
T/C [1]: 158 % of control | T/C [2]: 159 % of control | T/C [3]: 105 % of control | T/C [4]: 96 % of control

O=C(O)CSc1nc(-c2ccccc2)c(-c2ccccc2)n1-c1ccccn1
T/C [14]: 94 % of control | T/C [15]: 60 % of control

CC1(C)OC1CS(=O)c1ccccc1 (centres undefined)
T/C [2]: 121 % of control | T/C [3]: 89 % of control

c1cnc2ncncc2n1
T/C [16]: 150 % of control | T/C [13]: 81 % of control

CNc1n[n+](-c2ccccc2)no1
T/C [17]: 98 % of control | T/C [18]: 92 % of control

COc1cccc2c1C(=O)c1c(O)c3c(c(O)c1C2=O)CC(O)(C(=O)CO)CC3OC1CC(N)C(O)C(C)O1 (centres undefined)
T/C (dose: 12.0 mg/kg/injection, schedule: Q01DX010 (sc), vehicle: saline): 71 % of control | T/C (dose: 24.0 mg/kg/injection, schedule: Q01DX010 (sc), vehicle: saline): 24 % of control | T/C (dose: 25.0 mg/kg/injection, schedule: Q01DX010 (sc), vehicle: water): 71 % of control | T/C [17]: 82 % of control | T/C (dose: 48.0 mg/kg/injection, schedule: Q01DX010 (sc), vehicle: saline): 31 % of control | T/C [14]: 71 % of control | T/C [18]: 105 % of control | T/C [15]: 39 % of control | T/C (dose: 150.0 mg/kg/injection, schedule: Q04DX003 (sc), vehicle: water): 193 % of control | T/C (dose: 200.0 mg/kg/injection, schedule: Q01DX010 (sc), vehicle: water): 11 % of control | T/C [9]: 46 % of control

O=CC=O
T/C [11]: 82 % of control | T/C [12]: 61 % of control

N=C(N)Sc1ccccn1
T/C (dose: 1.25 mg/kg/injection, schedule: Q01DX010 (sc), vehicle: saline): 83 % of control | T/C (dose: 2.5 mg/kg/injection, schedule: Q01DX010 (sc), vehicle: saline): 72 % of control | T/C (dose: 5.0 mg/kg/injection, schedule: Q01DX010 (sc), vehicle: saline): 52 % of control | T/C (dose: 10.0 mg/kg/injection, schedule: Q01DX010 (sc), vehicle: saline): 29 % of control | T/C (dose: 25.0 mg/kg/injection, schedule: Q01DX010 (sc), vehicle: saline): 158 % of control | T/C (dose: 50.0 mg/kg/injection, schedule: Q01DX010 (sc), vehicle: saline): 167 % of control

O=c1c(O)c(-c2cc(O)c(O)c(O)c2)oc2cc(O)cc(O)c12
T/C (dose: 6.0 mg/kg/injection, schedule: Q04DX003 (sc), vehicle: saline with Tween-80): 93 % of control | T/C (dose: 12.0 mg/kg/injection, schedule: Q04DX003 (sc), vehicle: saline with Tween-80): 99 % of control | T/C (dose: 24.0 mg/kg/injection, schedule: Q04DX003 (sc), vehicle: saline with Tween-80): 92 % of control | T/C (dose: 48.0 mg/kg/injection, schedule: Q04DX003 (sc), vehicle: saline with Tween-80): 96 % of control | T/C [16]: 100 % of control | T/C [13]: 83 % of control | T/C [10]: 69 % of control | T/C (dose: 400.0 mg/kg/injection, schedule: Q04DX003 (sc), vehicle: saline with Tween-80): 94 % of control

COC1(OC)C2C=CC1CC2
T/C [1]: 105 % of control | T/C [2]: 150 % of control | T/C [3]: 104 % of control

Reference: PubChem BioAssay AID264 (DTP/NCI, 2004)
